This is an account of results in patent publication US11198713B2, “Agents modulating beta-catenin functions and methods thereof” (FOG PHARMACEUTICALS, INC., priority 2017, dated 2021).

Numbered stars: 1 amine (or outer) side, 2 acyl side, 3 side chain; on linkers, the order of the positions; unused ones are H or OH. Bridge positions count the residues as written; N and C are the ends. Square brackets hold non-standard residues; d marks the D form. Peptide text beside a SMILES is read from it. dαMeOrn(Me) = CN(CCC[C@@](C)(N[*:1])C(=O)[*:2])[*:3]; dαMeDab(Me) = CN(CC[C@@](C)(N[*:1])C(=O)[*:2])[*:3]; dαMeDap(Me) = CN(C[C@@](C)(N[*:1])C(=O)[*:2])[*:3]; αMeDab(Me) = CN(CC[C@](C)(N[*:1])C(=O)[*:2])[*:3]; X12 = CN(CC=[*:3])CCC[C@@](C)(N[*:1])C(=O)[*:2]; X11 = CN(CC=[*:3])C[C@](C)(N[*:1])C(=O)[*:2]; X6 = CN(CC=[*:3])CC[C@](C)(N[*:1])C(=O)[*:2]; X13 = C[C@@](CCCCC=[*:3])(N[*:1])C(=O)[*:2]; X5 = C[C@](CCCCCC=[*:3])(N[*:1])C(=O)[*:2]; X7 = C[C@](CCCCC=[*:3])(N[*:1])C(=O)[*:2]; X2 = O=C(OCC=CCOC(=O)[*:2])[*:1]; S5 = C=CCCC[C@](C)(N)C(=O)O Where only a bound is given, the exact number is not on record here.

For the assay, the target named is T1, full-length beta-catenin (Axin site) (Homo sapiens, UniProt P35222).
T1 construct: 15 nM full-length beta-catenin, 20 nM FITC labeled peptide in buffer
T1 sequence (P35222 1-781): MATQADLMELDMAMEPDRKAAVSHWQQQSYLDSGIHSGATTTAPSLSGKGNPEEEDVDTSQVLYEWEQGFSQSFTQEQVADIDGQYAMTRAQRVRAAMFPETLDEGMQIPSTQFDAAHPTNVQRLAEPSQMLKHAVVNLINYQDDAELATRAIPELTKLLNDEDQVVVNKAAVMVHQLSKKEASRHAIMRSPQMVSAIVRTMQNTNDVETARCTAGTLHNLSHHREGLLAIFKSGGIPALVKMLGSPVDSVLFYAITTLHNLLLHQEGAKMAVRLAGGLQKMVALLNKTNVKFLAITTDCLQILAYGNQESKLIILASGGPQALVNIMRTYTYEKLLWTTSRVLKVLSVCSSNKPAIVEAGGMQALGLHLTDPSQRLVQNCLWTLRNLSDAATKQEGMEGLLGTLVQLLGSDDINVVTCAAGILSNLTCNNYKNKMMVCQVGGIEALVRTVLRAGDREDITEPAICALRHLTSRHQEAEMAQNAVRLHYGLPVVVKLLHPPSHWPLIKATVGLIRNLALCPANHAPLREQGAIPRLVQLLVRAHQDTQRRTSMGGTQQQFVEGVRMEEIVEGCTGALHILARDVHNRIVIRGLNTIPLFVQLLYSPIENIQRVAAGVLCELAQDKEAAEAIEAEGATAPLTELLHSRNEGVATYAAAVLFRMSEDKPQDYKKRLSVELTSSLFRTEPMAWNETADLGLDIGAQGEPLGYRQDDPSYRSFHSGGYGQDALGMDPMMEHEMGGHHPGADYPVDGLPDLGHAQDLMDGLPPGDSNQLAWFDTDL
Briefly: Competition fluorescence polarization assay (Axin site probe). The assay is classed as binding. To be noted: competition fluorescence polarization, Table 2; read-out: in vitro FP EC50. The gist of the method: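 Competition FP: 15 nM full-length β-catenin pre-incubated 5 min with 20 nM FITC-labelled stapled Axin-site peptide, then titrated peptide added (3-fold series from 5 μM) for 15 min in the dark. Buffer 50 mM Tris pH 8.0, 250 mM NaCl, 2% glycerol, 0.5 mM EDTA; duplicate reads.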
(Fluorescence polarisation rises when a labelled molecule tumbles more slowly, as on binding a larger partner.)
Turning to `CC[C@H](C)[C@@H]1NC(=O)[C@H](Cc2c[nH]cn2)NC(=O)[C@H](C)NC(=O)[C@H](CC(=O)O)NC(=O)[C@H](CC(C)C)NC(=O)[C@H]([C@@H](C)CC)NC(=O)[C@](C)(NC(=O)[C@H](C)NC(C)=O)CCCCCC=CCN(C)C[C@@](C)(C(=O)N[C@@H](CCCNC(=N)N)C(=O)N[C@H](C(=O)N[C@@H](Cc2c[nH]c3ccccc23)C(N)=O)C(C)C)NC1=O` [FP0495a, Ac-A-R7-I-L-D-A-H-I-MD-R-V-W-NH2] (Ac-A[X5]ILDAHI[X11]RVW-NH2; staple 2-9), the EC50 was in the range of 500 to 5000 nM. Under `CC[C@H](C)[C@@H]1NC(=O)[C@H](Cc2c[nH]cn2)NC(=O)[C@H](C)NC(=O)[C@H](CC(=O)O)NC(=O)[C@H](CC(C)C)NC(=O)[C@H]([C@@H](C)CC)NC(=O)[C@](C)(NC(=O)[C@H](C)NC(C)=O)CCCCCC=CCOC(=O)N(C)C[C@@](C)(C(=O)N[C@@H](CCCNC(=N)N)C(=O)N[C@H](C(=O)N[C@@H](Cc2c[nH]c3ccccc23)C(N)=O)C(C)C)NC1=O` [FP0495c, Ac-A-R7-I-L-D-A-H-I-MD-R-V-W-NH2] stands 100 to 500 nM; under `CC[C@H](C)[C@@H]1NC(=O)[C@H](Cc2c[nH]cn2)NC(=O)[C@H](C)NC(=O)[C@H](CC(=O)O)NC(=O)[C@H](CC(C)C)NC(=O)[C@H]([C@@H](C)CC)NC(=O)[C@](C)(NC(=O)[C@H](C)NC(C)=O)CCCC=CCOC(=O)N(C)CC[C@@](C)(C(=O)N[C@@H](CCCNC(=N)N)C(=O)N[C@H](C(=O)N[C@@H](Cc2c[nH]c3ccccc23)C(N)=O)C(C)C)NC1=O` [FP0501c, Ac-A-R5-I-L-D-A-H-I-MF-R-V-W-NH2], 100 to 500 nM. Under `CC[C@H](C)[C@@H]1NC(=O)[C@H](Cc2c[nH]cn2)NC(=O)[C@H](C)NC(=O)[C@H](CC(=O)O)NC(=O)[C@H](CC(C)C)NC(=O)[C@H]([C@@H](C)CC)NC(=O)[C@](C)(NC(=O)[C@H](C)NC(C)=O)CCCCC=CCN(C)CC[C@@](C)(C(=O)N[C@@H](CCCNC(=N)N)C(=O)N[C@H](C(=O)N[C@@H](Cc2c[nH]c3ccccc23)C(N)=O)C(C)C)NC1=O` [FP0502a, Ac-A-R6-I-L-D-A-H-I-MF-R-V-W-NH2] (Ac-A[X7]ILDAHI[X6]RVW-NH2; staple 2-9) stands 500 to 5000 nM; under `CC[C@H](C)[C@@H]1NC(=O)[C@H](Cc2c[nH]cn2)NC(=O)[C@H](C)NC(=O)[C@H](CC(=O)O)NC(=O)[C@H](CC(C)C)NC(=O)[C@H]([C@@H](C)CC)NC(=O)[C@](C)(NC(=O)[C@H](C)NC(C)=O)CCCN(C)CC=CCCC[C@@](C)(C(=O)N[C@@H](CCCNC(=N)N)C(=O)N[C@H](C(=O)N[C@@H](Cc2c[nH]c3ccccc23)C(N)=O)C(C)C)NC1=O` [FP0506a, Ac-A-MI-I-L-D-A-H-I-S5-R-V-W-NH2] (Ac-A[X12]ILDAHI[S5]RVW-NH2; staple 2-9), 500 to 5000 nM.

On to `CC[C@H](C)[C@@H]1NC(=O)[C@H](Cc2c[nH]cn2)NC(=O)[C@H](C)NC(=O)[C@H](CC(=O)O)NC(=O)[C@H](CC(C)C)NC(=O)[C@H]([C@@H](C)CC)NC(=O)[C@](C)(NC(=O)[C@H](C)NC(C)=O)CCCN(C)CC=CCCCC[C@@](C)(C(=O)N[C@@H](CCCNC(=N)N)C(=O)N[C@H](C(=O)N[C@@H](Cc2c[nH]c3ccccc23)C(N)=O)C(C)C)NC1=O` [FP0507a, Ac-A-MI-I-L-D-A-H-I-S6-R-V-W-NH2] (Ac-A[X12]ILDAHI[X13]RVW-NH2; staple 2-9), for which the EC50 is less than 100 nM. Under `CC[C@H](C)[C@@H]1NC(=O)[C@H](Cc2c[nH]cn2)NC(=O)[C@H](C)NC(=O)[C@H](CC(=O)O)NC(=O)[C@H](CC(C)C)NC(=O)[C@H]([C@@H](C)CC)NC(=O)[C@](C)(NC(=O)[C@H](C)NC(C)=O)CCCN(C)C(=O)OCC=CCCCC[C@@](C)(C(=O)N[C@@H](CCCNC(=N)N)C(=O)N[C@H](C(=O)N[C@@H](Cc2c[nH]c3ccccc23)C(N)=O)C(C)C)NC1=O` [FP0507c, Ac-A-MI-I-L-D-A-H-I-S6-R-V-W-NH2] stands 500 to 5000 nM. In the case of `CC[C@H](C)[C@@H]1NC(=O)[C@H](Cc2c[nH]cn2)NC(=O)[C@H](C)NC(=O)[C@H](CC(=O)O)NC(=O)[C@H](CC(C)C)NC(=O)[C@H]([C@@H](C)CC)NC(=O)[C@](C)(NC(=O)[C@H](C)NC(C)=O)CCCCCC=CCOC(=O)N2CC(C(=O)N[C@@H](CCCNC(=N)N)C(=O)N[C@H](C(=O)N[C@@H](Cc3c[nH]c4ccccc34)C(N)=O)C(C)C)(C2)NC1=O` [FP0516c, Ac-A-R7-I-L-D-A-H-I-MA-R-V-W-NH2] it was 100 to 500 nM; in that of `CC[C@H](C)[C@@H]1NC(=O)[C@H](Cc2cccs2)NC(=O)[C@H](C)NC(=O)[C@H](CC(=O)O)NC(=O)[C@H](CC(C)C)NC(=O)[C@H]([C@@H](C)CC)NC(=O)[C@](C)(NC(=O)[C@H](C)NC(C)=O)CCCCCCC=CCOC(=O)N2CC[C@@](C(=O)N[C@@H](CCCNC(=N)N)C(=O)N[C@H](C(=O)N[C@@H](Cc3c[nH]c4ccccc34)C(N)=O)C(C)C)(C2)NC1=O` [FP0536c, Ac-A-R8-I-L-D-A-thi-I-MB-R-V-W-NH2], greater than 5000 nM; in that of `CC[C@H](C)[C@@H]1NC(=O)[C@H](Cc2cccnc2)NC(=O)[C@H](C)NC(=O)[C@H](CC(=O)O)NC(=O)[C@H](CC(C)C)NC(=O)[C@H]([C@@H](C)CC)NC(=O)[C@](C)(NC(=O)[C@H](C)NC(C)=O)CCCCCCC=CCOC(=O)N2CC[C@@](C(=O)N[C@@H](CCCNC(=N)N)C(=O)N[C@H](C(=O)N[C@@H](Cc3c[nH]c4ccccc34)C(N)=O)C(C)C)(C2)NC1=O` [FP0537c, Ac-A-R8-I-L-D-A-3pyr-I-MB-R-V-W-NH2], greater than 5000 nM. Under `CC[C@H](C)[C@@H]1NC(=O)[C@H](Cc2ccncc2)NC(=O)[C@H](C)NC(=O)[C@H](CC(=O)O)NC(=O)[C@H](CC(C)C)NC(=O)[C@H]([C@@H](C)CC)NC(=O)[C@](C)(NC(=O)[C@H](C)NC(C)=O)CCCCCCC=CCOC(=O)N2CC[C@@](C(=O)N[C@@H](CCCNC(=N)N)C(=O)N[C@H](C(=O)N[C@@H](Cc3c[nH]c4ccccc34)C(N)=O)C(C)C)(C2)NC1=O` [FP0538c, Ac-A-R8-I-L-D-A-4pyr-I-MB-R-V-W-NH2] stands 500 to 5000 nM; under `CC[C@H](C)[C@@H]1NC(=O)[C@H](Cc2ccccc2)NC(=O)[C@H](C)NC(=O)[C@H](CC(=O)O)NC(=O)[C@H](CC(C)C)NC(=O)[C@H]([C@@H](C)CC)NC(=O)[C@](C)(NC(=O)[C@H](C)NC(C)=O)CCCCCCC=CCOC(=O)N2CC[C@@](C(=O)N[C@@H](CCCNC(=N)N)C(=O)N[C@H](C(=O)N[C@@H](Cc3c[nH]c4ccccc34)C(N)=O)C(C)C)(C2)NC1=O` [FP0540c, Ac-A-R8-I-L-D-A-F-I-MB-R-V-W-NH2], greater than 5000 nM. Consider `CC[C@H](C)[C@@H]1NC(=O)[C@H](Cc2ccco2)NC(=O)[C@H](C)NC(=O)[C@H](CC(=O)O)NC(=O)[C@H](CC(C)C)NC(=O)[C@H]([C@@H](C)CC)NC(=O)[C@](C)(NC(=O)[C@H](C)NC(C)=O)CCCCCCC=CCOC(=O)N2CC[C@@](C(=O)N[C@@H](CCCNC(=N)N)C(=O)N[C@H](C(=O)N[C@@H](Cc3c[nH]c4ccccc34)C(N)=O)C(C)C)(C2)NC1=O` [FP0541c, Ac-A-R8-I-L-D-A-fur-I-MB-R-V-W-NH2], for which the EC50 is greater than 5000 nM. In the case of `CC[C@H](C)[C@@H]1NC(=O)[C@H](Cc2c[nH]cn2)NC(=O)[C@H](C)NC(=O)[C@H](CC(=O)O)NC(=O)[C@H](CC(C)C)NC(=O)[C@H]([C@@H](C)CC)NC(=O)[C@](C)(NC(=O)[C@H](C)NC(C)=O)CCCCCCC=CCOC(=O)N2CC[C@@](C(=O)N[C@@H](CO)C(=O)N[C@H](C(=O)N[C@@H](Cc3c[nH]c4ccccc34)C(N)=O)C(C)C)(C2)NC1=O` [FP0542c, Ac-A-R8-I-L-D-A-H-I-MB-S-V-W-NH2] it was 500 to 5000 nM. Under `CC[C@H](C)[C@@H]1NC(=O)[C@H](Cc2c[nH]cn2)NC(=O)[C@H](C)NC(=O)[C@H](CC(=O)O)NC(=O)[C@H](CC(C)C)NC(=O)[C@H]([C@@H](C)CC)NC(=O)[C@](C)(NC(=O)[C@H](C)NC(C)=O)CCCN(C)C(=O)OCC=CCOC(=O)N(C)CC[C@@](C)(C(=O)N[C@@H](CCCNC(=N)N)C(=O)N[C@H](C(=O)N[C@@H](Cc2c[nH]c3ccccc23)C(N)=O)C(C)C)NC1=O` [FP0587c, Ac-A-MI-I-L-D-A-H-I-MF-R-V-W-NH2] (Ac-A[dαMeOrn(Me)]ILDAHI[αMeDab(Me)]RVW-NH2; linker 2-9 via X2) stands less than 100 nM; under `CC[C@H](C)[C@@H]1NC(=O)[C@H](Cc2c[nH]cn2)NC(=O)[C@H](C)NC(=O)[C@H](CC(=O)O)NC(=O)[C@H](CC(C)C)NC(=O)[C@H]([C@@H](C)CC)NC(=O)[C@](C)(NC(=O)[C@H](C)NC(C)=O)CCN(C)C(=O)OCC=CCOC(=O)N(C)C[C@](C)(C(=O)N[C@@H](CCCNC(=N)N)C(=O)N[C@H](C(=O)N[C@@H](Cc2c[nH]c3ccccc23)C(N)=O)C(C)C)NC1=O` [FP0596c, Ac-A-MG-I-L-D-A-H-I-ME-R-V-W-NH2] (Ac-A[dαMeDab(Me)]ILDAHI[dαMeDap(Me)]RVW-NH2; linker 2-9 via X2), 500 to 5000 nM.

For orientation: EC50 means the concentration needed to bring the measured effect to its halfway point.
